Assay results as given in patent US10563244B2, “Nanopatterned extracellular matrices enable cell-based assays with a mass spectrometric readout” (NORTHWESTERN UNIVERSITY, priority 2016, dated 2020).

System: cellular phosphatases (phosphotyrosine phosphatases) in HeLa cells
Assay: TCAL-SAMDI cell-based phosphatase activity assay (HeLa cells on fibronectin nanoarrays, lysis, SAMDI-MS readout)
Experimental: Cell-Based Assay for Enzyme Activity. HeLa cells were obtained from ATCC and cultured in DMEM medium supplemented with fetal bovine serum, glutamine, penicillin and streptomycin. All cells were cultured in a humidified incubator at 37° C. and 5% CO2. Cells were trypsinized and suspended in media, and the average number of cells per μL was estimated using a hemocytometer to seed the desired number of cells per spot. The volume of media per spot was 3 μL for all experiments. Cells were cultured on the monolayers presenting fibronectin and the phosphatase peptide substrate on glass slides for 2 hours under standard growth conditions. Lysis buffer (1 μL) was delivered manually to each spot and the lysate was allowed to react with the monolayer for 1 hour at 37° C. in a humidity chamber. […] A solution of 2,4,6-trihydroxyacetopehenone (THAP) in acetone (30 mg/mL) was delivered to each spot on the array and the surfaces were analyzed using an Applied Biosystems 5800 MALDI TOF/TOF instrument with a 20 kV accelerating voltage in positive reflector mode. […]
HeLa cells were seeded on the fibronectin nanopatterned surfaces and cultured the cells for two hours under standard media conditions (FIG. 4A). […] The mixed monolayer was rinsed with PBS buffer and then treated with 2,4,6-trihydroxyacetophenone (THAP) matrix (30 mg/mL in acetone) and analyzed with SAMDI-MS. […]

## O=C(CBr)c1ccc(O)cc1 [PTPI-I, PTP Inhibitor I]
HeLa cells, 300 μM added to cell cultures, two hour culture period, then lysis and SAMDI-MS
  decrease in phosphatase activity: 92%
Figure legend says inhibitor added to the lysis buffer, HeLa cells on patterned monolayers
  phosphatase activity after addition of inhibitor (SAMDI spectra, FIG. 4C): loss of phosphatase activity
